This note sets out measurements from patent publication US9126933B2, “Soft PDE4 inhibitors” (Amakem NV, priority 2011, dated 2015).

The structures appear in SMILES notation. ≈ marks a conversion by molar mass, not a printed value.

The target of data set [1] is T1, recombinant PDE4D2 (Homo sapiens, UniProt Q08499).
T1 construct: host or cells: Sf9 insect cells
Nature of the data set: PDE4 inhibitory activity screening, PDE4D2 (HTRF, cAMP substrate). The class given is biochemical. As to conditions: 40 nM cAMP, 30 minutes, room temperature. Here is the method:
(§1) Various concentrations of the test compounds were incubated with recombinant PDE4B1 or PDE4D2 (isolated from Sf9 cells), using 40 nM cAMP as enzyme substrate. Incubation time was set to 30 minutes. The reaction was carried out at room temperature. At the end of the incubation time, residual cAMP concentration was determined, using HTRF as detection method.
(§2) The IC50 values (concentration causing a half-maximal inhibition of control specific activity) and Hill coefficients (nH) were determined by non-linear regression analysis of the inhibition curves generated with mean replicate values using Hill equation curve fitting (Y=D+[(A−D)/(1+(C/C50)nH)], where Y=specific activity, D=minimum specific activity, A=maximum specific activity, C=compound concentration, C50=IC50 and nH=slope factor).
In general terms: In TR-FRET formats the signal depends on donor and acceptor labels being close together.

For data set [2], the target named is T2, recombinant PDE4B1 (Homo sapiens, UniProt Q07343).
T2 construct: host or cells: Sf9 insect cells
Nature of the data set: PDE4 inhibitory activity screening, PDE4B1 (HTRF, cAMP substrate). The data set is classed as biochemical. As to conditions: 40 nM cAMP, 30 minutes, room temperature. Here is the method: as §1, §2

Data set [3] in a line: Solubility in aqueous solution (PBS pH 7.4). The class given is physicochemical. As to conditions: phosphate buffer saline (PBS), pH 7.4, aqueous buffer, kinetic from dmso stock; PBS pH7.4, 24 h, room temperature, theoretical concentration 200 μM. Here is the method:
Using a 10 mM stock solution of each compound in 100% DMSO, dilutions were prepared to a theoretical concentration of 200 μM in both phosphate buffer saline (PBS), pH7.4 and in 100% DMSO (as reference). Solutions (triplicates) were incubated at room temperature for 24 h on a shaker at 100 rpm. The solutions were then centrifugated at 13000 rpm for 30 min and the supernatant was further diluted to 2 μM in methanol. The supernatant was then analyzed by LC-MSMS. The concentration of compound in PBS supernatant was determined by comparing the MS peak area with that of the reference solution in DMSO.

Data set [4] is described as follows: Stability assay in human plasma. The data set is classed as in vitro ADME. As to conditions: 1 μM compound. The method, then:
Compounds are incubated at a concentration of 1 μM in rat (mice/rabbit/dog/rabbit) or human plasma. Samples are taken at fixed time points and the remnant of compound is determined by LC-MS/MS after protein precipitation. Half life of the compound is expressed in minutes.

The nature of data set [5]: Stability towards drug metabolizing enzymes in lung S9. The data set is classed as in vitro ADME. As to conditions: lung S9 (from smokers); human lung S9, 1 μM compound, cofactors NADPH, UDPGA, PAPS, GSH. The method, then:
A 1 μM solution of the compounds is incubated with a reaction mixture containing lung S9 (from smokers) as well as the cofactors NADPH, UDPGA, PAPS and GSH. Samples are collected at 0, 15, 30 and 60 minutes post incubation. Negative control samples incubated with […] and S9 fraction in the absence of cofactors are run in parallel. By using LC-MS/MS analysis, the percent of compounds remaining at each time point, the metabolic half-life of the compounds (expressed in minutes) and the metabolic half-life of the control compounds are determined.

Data set [6] can be described thus: Membrane permeability, Pampa assay. As to conditions: for Papp (Pampa; 10^−6 cm/s): 10 μM in 10 mM PBS pH=7.4, 2% DMSO, 5 hours, room temperature.
Experimental: (§3) The capacity of compounds of the invention to cross a lipophilic membrane was evaluated in a Pampa assay, using an assay plate containing structured layers of phospholipids supported on a PVDF filter (Benton Dickinson). […] Each compound was tested in triplicate and was prepared as a 10 μM solution in 10 mM PBS pH=7.4 buffer containing 2% DMSO. Compounds were dosed in the donor chamber of the assay plate and incubated for 5 hours, at room temperature. Additionally, an equilibrium solution plate containing 6 μM of test compound was prepared. Test compound concentration in donor and acceptor chamber and in the equilibrium plate was quantified using HPLC-MS/MS. The subsequently calculated permeability coefficients were reported as Papp.
Data set [7] can be described thus: in vitro. The conditions noted are these: PAMPA, pH 7.4. In general terms: PAMPA measures passive passage across an artificial lipid membrane.
Experimental: as §3

T2 sequence (Q07343 whole entry): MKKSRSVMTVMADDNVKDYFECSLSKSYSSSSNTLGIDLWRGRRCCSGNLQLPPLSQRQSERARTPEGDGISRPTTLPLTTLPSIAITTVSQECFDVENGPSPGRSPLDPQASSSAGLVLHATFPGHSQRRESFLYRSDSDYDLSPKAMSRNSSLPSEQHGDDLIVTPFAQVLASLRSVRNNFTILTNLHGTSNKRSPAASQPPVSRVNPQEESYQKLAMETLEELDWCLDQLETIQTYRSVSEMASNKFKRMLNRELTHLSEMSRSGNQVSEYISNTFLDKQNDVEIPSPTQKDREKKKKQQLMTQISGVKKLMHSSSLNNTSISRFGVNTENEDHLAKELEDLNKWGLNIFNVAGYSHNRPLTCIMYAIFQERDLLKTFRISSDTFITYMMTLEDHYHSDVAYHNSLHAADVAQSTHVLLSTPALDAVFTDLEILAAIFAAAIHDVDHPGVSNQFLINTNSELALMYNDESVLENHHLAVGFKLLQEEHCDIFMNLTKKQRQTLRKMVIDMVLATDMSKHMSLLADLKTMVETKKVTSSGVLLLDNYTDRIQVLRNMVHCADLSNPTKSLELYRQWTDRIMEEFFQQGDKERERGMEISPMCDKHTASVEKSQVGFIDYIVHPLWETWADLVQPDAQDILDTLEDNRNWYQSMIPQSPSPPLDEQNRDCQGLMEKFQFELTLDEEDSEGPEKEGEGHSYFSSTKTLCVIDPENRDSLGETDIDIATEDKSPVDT
T1 sequence (Q08499 303-809 limits assumed): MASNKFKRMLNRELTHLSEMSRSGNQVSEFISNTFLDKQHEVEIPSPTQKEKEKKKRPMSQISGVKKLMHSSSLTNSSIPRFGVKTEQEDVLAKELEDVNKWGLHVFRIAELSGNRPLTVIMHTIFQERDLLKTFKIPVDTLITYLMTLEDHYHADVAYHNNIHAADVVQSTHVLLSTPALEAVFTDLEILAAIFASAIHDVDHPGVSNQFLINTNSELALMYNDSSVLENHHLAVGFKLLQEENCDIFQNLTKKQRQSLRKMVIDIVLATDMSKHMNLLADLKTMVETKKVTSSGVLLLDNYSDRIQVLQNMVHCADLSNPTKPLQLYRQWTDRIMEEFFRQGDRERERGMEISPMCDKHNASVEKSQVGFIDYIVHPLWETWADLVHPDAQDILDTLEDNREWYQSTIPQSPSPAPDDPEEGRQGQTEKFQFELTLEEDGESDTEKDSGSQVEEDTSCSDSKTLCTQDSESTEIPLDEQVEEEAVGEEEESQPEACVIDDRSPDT

As to `O=C(Nc1c(Cl)cncc1Cl)c1ccc(OC(F)F)c(OCCCCNC2CCOC2=O)c1` (centres unmarked) [Compound 11, N-(3,5-dichloropyridin-4-yl)-4-(difluoromethoxy)-3-{4-[(2-oxotetrahydrofuran-3-yl)amino]butoxy}benzamide], the IC50 in data set [1] and in data set [2] was under 10 nM in each case. The molecule further displayed a solubility at 24 h in data set [3] of 10 to 100 µM (≈ 5.04 to 50.4 µg/mL). Besides, the figures for the half-life at 1 μM in data set [4] and in data set [5] were under 15 min and over 60 min, respectively. In addition, in data set [6] (PAMPA, pH 7.4), the Papp at 5 h, 10 μM came out at 5 ×10⁻⁶ cm/s.

In the case of `O=C(Nc1c(Cl)cncc1Cl)c1ccc(OC(F)F)c(OCCCCSC2CCOC2=O)c1` (centres unmarked) [Compound 12, N-(3,5-dichloropyridin-4-yl)-4-(difluoromethoxy)-3-{4-[(2-oxotetrahydrofuran-3-yl)thio]butoxy}benzamide], the IC50 in data set [1] and in data set [2] was under 10 nM each time. The molecule also had a solubility at 24 h in data set [3] of 10 to 100 µM (≈ 5.21 to 52.1 µg/mL). For the same molecule, the half-life at 1 μM was under 15 min in data set [4] and over 60 min in data set [5]. The “Papp (Pampa; 10^−6 cm/s)” value in data set [6] was 2.5 10^−6 cm/s.

As for `O=C(Nc1c(Cl)cncc1Cl)c1ccc(OC(F)F)c(OCCCNC2CCOC2=O)c1` (centres unmarked) [Compound 14], the IC50 in data set [1] was 10 to 100 nM; in data set [2] it was under 10 nM. The same molecule displayed a solubility at 24 h in data set [3] of 10 to 100 µM (≈ 4.9 to 49 µg/mL). Besides, the half-life at 1 μM was under 15 min in data set [4] and over 60 min in data set [5]. Moreover, the “Papp (Pampa; 10^−6 cm/s)” value in data set [6] is given as 7.3 10^−6 cm/s.

In data set [7], `CC(C)NCC(O)COc1cccc2ccccc12` (centres unmarked) [Propranolol] had a Papp at 5 h, 10 μM of 9.5 ×10⁻⁶ cm/s.

In data set [7], `COC(=O)[C@H]1[C@H]2C[C@@H]3c4[nH]c5cc(OC)ccc5c4CCN3C[C@H]2C[C@@H](OC(=O)c2cc(OC)c(OC)c(OC)c2)[C@@H]1OC` [Reserpine] came in with a Papp at 5 h, 10 μM of 0.008 ×10⁻⁶ cm/s.

A word on the IC50: it is the midpoint of a concentration-inhibition curve. As usually defined, the solubility is the concentration that dissolves in the medium under given conditions. Read a low solubility as a poorly soluble substance. For orientation: half-life means the time in which the quantity being followed falls by half. A higher half-life goes with slow decline. Usually Papp stands for the rate of passage across a membrane or cell layer, normalised by area and donor concentration. Read a low Papp as slow passage.
